Assay results: US20190275012A9, “SUBSTITUTED THIAZOLO-PYRIDINE COMPOUNDS AS MALT1 INHIBITORS” (Lupin Limited, priority 2016, published 2019)

What was measured:
[1] = system: NF-kB transcriptional activity in HEK-293-NF-kB-Luc cell line overexpressing MALT1; experiment: NF-kB reporter assay (luciferase, MALT1 stably overexpressed); format: cell-based; settings: Homo sapiens, 24 h, HEK-293-NF-kB-Luc cells stably overexpressing MALT1, 24 h treatment, Bright Glo luminescence; read-out: NF-kB inhibition IC50
Description: The NF-⇐B reporter assay was performed to screen for MALT1 inhibition mediated reduction in the NF-⇐B transcriptional activity. For this purpose, MALT1 was stably overexpressed in HEK-293—NF-⇐B-Luc cell line. Cells were seeded in poly-D-lysine coated 96-well plates in a culture medium containing the selection markers (DMEM+10% FBS+50 |g/ml Hygromycin+500 |g/ml Geniticin) and allowed to adhere overnight. On the following day, cells were treated with various concentrations of test compounds for 24 h. After 24 h of treatment with test compounds, media was removed from each well and Bright Glo™ (Promega, USA) substrate was added and incubated for further 10 min at ambient temperature. Luminescence was measured for detection of NF-⇐B reporter activity. RLUs (Relative Luminescence Units) were directly proportional to the NF-⇐B activity. % inhibition of NF-⇐B activity was calculated relative to the samples containing media with 0.1% DMSO alone as per the following formula

full length MALT1 enzyme = target: T1, full length MALT1 enzyme (Homo sapiens, UniProt Q9UDY8); experiment: MALT1 biochemical assay (fluorescence based, Ac-Leu-Arg-Ser-Arg-AMC cleavage); settings: full length MALT1 protein, 2 h pre-incubation at RT, tetrapeptide substrate Ac-Leu-Arg-Ser-Arg-AMC, read-out: Malt 1 inhibition IC50
T1 construct: a fluorescence based assay with full length MALT1 enzyme
T1 sequence (Q9UDY8 1-824): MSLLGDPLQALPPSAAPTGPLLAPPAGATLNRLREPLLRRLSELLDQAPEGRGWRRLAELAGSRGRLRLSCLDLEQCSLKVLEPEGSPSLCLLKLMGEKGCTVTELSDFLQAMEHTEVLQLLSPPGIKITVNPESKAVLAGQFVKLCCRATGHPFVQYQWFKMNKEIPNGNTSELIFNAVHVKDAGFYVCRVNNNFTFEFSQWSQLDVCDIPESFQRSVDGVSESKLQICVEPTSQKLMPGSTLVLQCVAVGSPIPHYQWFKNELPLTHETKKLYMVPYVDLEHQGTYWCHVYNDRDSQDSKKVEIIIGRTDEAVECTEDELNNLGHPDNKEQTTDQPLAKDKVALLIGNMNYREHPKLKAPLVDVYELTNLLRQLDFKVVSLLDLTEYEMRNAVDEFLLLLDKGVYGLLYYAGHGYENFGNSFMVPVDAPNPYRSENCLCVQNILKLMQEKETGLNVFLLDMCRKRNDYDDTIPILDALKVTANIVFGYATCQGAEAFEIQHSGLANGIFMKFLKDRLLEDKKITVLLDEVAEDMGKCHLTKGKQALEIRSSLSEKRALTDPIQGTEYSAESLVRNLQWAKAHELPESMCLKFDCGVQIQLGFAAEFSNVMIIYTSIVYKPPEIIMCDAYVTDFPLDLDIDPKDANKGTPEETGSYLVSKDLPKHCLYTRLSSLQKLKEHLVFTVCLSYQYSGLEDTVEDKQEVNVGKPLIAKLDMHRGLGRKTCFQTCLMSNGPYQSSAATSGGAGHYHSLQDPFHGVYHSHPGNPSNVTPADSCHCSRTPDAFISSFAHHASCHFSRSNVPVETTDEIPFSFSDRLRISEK
Description: The biochemical potency of the MALT1 inhibitors was tested by using a fluorescence based assay with full length MALT1 enzyme. The assay principle makes use of the preferential cleavage by MALT1 after the Arginine residue. Thus, the substrate used is a tetrapeptide (Ac-Leu-Arg-Ser-Arg-AMC; Catalogue # SMAMC013, SM Biochemicals) which is cleaved by active MALT1 releasing the AMC which is fluorescent. Upon addition of the MALT1 protease inhibitors, the proteolytic activity (and accordingly AMC fluorescence) is reduced in a dose dependent manner. The kinetic characterization of the enzymatic reaction was measured by determining the Michaelis constant, Km, of the reaction (approximately 130=A/I). The assay buffer consisted of 50 mM MES, 150 mM NaCl, 0.1% w/v CHAPS, 1 M Ammonium citrate and 10 mM DTT (pH=7). The assay was established for the 384-well plate format using black microtiter square well plates (Optiplate 384-F, Perkin Elmer). The test compounds were dissolved in 100% DMSO at a stock concentration of 10 mM. Serial dilutions were made first in 100% DMSO. The final concentration of DMSO was 0.5% by wt.
For determining the extent of inhibition of MALT1 protease activity by MALT1 inhibitors, 10⇒| of the test compound solutions were pre-incubated with 10⇒| of MALT1 full length protein (100-300 ng protein/well) for 2 h at RT. This was followed by 10⇒| of substrate addition at a final concentration of 100⇒M for an additional 4-12 h. The increase in assay signal was linear over this period of time and proportional with increase in the enzyme content. The final concentrations of the test compounds typically ranged from 10000 nM to 0.03 nM in an alternate 3.16 and 3 serial dilutions. The positive control for the reaction contained enzyme and DMSO (without any test compound) and was considered to have 100% enzyme activity (0% inhibition) and the negative control containing only buffer and DMSO (without any enzyme) was considered to have no enzymatic activity (100% inhibition). The fluorescence was recorded in a Spectra Max plate reader, Molecular Devices, with a fluorescence excitation at 360 nm and emission recording at 460 nm. The fluorescence units were transformed to percentage inhibitions by using the positive and negative controls as references as per the following formula.
[formula] Positive control=Reaction containing enzyme+substrate+DMSO
Negative control=Reaction containing substrate+DMSO but no enzyme
The IC50 values of individual compounds were calculated with Non Linear Regression Analysis using Graph Pad Prism (Graph Pad software, Inc, USA).

| SMILES | IC50 (full length MALT1 enzyme) [nM] | IC50 [1] [nM] |
| --- | --- | --- |
| COCC1CCCN(c2c(NC(=O)Nc3cnc(OC)c(Cl)c3)cnc3sc(C)nc23)C1 (racemic) [Compound 51, (ě)-1-(5-Chloro-6-methoxypyridin-3-yl)-3-(7-(3-(methoxymethyl)piperidin-1-yl)-2-methylthiazolo[5,4-b]pyridin-6-yl)urea] | 51 to 100 | 501 to 1500 |
| COc1nc(-n2nccn2)c(C(F)(F)F)cc1NC(=O)Nc1cnc2sc(C)nc2c1C(C)OC (single isomer, unassigned) [Compound 88b, 1-(2-Methoxy-6-(2H-1,2,3-triazol-2-yl)-5-(trifluoromethyl)pyridin-3-yl)-3-(7-(1-methoxyethyl)-2-methylthiazolo[5,4-b]pyridin-6-yl)urea] | 1 to 50 | 1 to 100 |
| COc1nc(-n2nccn2)c(Cl)cc1NC(=O)Nc1cnc2sc(C)nc2c1C(C)OC (single isomer, unassigned) [Compound 90a, 1-(5-Chloro-2-methoxy-6-(2H-1,2,3-triazol-2-yl)pyridin-3-yl)-3-(7-(1-methoxyethyl)-2-methylthiazolo[5,4-b]pyridin-6-yl)urea] | 1 to 50 | 1 to 100 |
| CCC(OC)c1c(NC(=O)Nc2ccc(-n3nccn3)c(Cl)c2)cnc2sc(C)nc12 (single isomer, unassigned) [Compound 126b, 1-(3-Chloro-4-(2H-1,2,3-triazol-2-yl)phenyl)-3-(7-(1-methoxypropyl)-2-methylthiazolo[5,4-b]pyridin-6-yl)urea] | 1 to 50 | 1 to 100 |
| COC(C)c1c(NC(=O)Nc2cnc(-n3nccn3)c(C(F)(F)F)c2)cnc2sc(C)nc12 (single isomer, unassigned) [Compound 142a, 1-(6-(2H-1,2,3-Triazol-2-yl)-5-(trifluoromethyl)pyridin-3-yl)-3-(7-(1-methoxyethyl)-2-methylthiazolo[5,4-b]pyridin-6-yl)urea] | 1 to 50 | 1 to 100 |
| COC(=O)c1cc(Cl)cc(NC(=O)Nc2cnc3sc(C)nc3c2C(C)OC)c1 (single isomer, unassigned) [Compound 152b, Methyl 3-chloro-5-(3-(7-(1-methoxyethyl)-2-methylthiazolo[5,4-b]pyridin-6-yl)ureido)benzoate] | 1 to 50 | 1 to 100 |
| COc1nc(-n2nccn2)c(C(F)(F)F)cc1NC(=O)Nc1cnc2sc(C)nc2c1C(OC)C1CC1 (single isomer, unassigned) [Compound 155a, 1-(7-(Cyclopropyl(methoxy)methyl)-2-methylthiazolo[5,4-b]pyridin-6-yl)-3-(2-methoxy-6-(2H-1,2,3-triazol-2-yl)-5-(trifluoromethyl)pyridin-3-yl)urea] | 1 to 50 | 1 to 100 |
| CCOC(C)c1c(NC(=O)Nc2cc(Cl)cnc2OC)cnc2sc(C)nc12 (single isomer, unassigned) [Compound 167b, 1-(5-Chloro-2-methoxypyridin-3-yl)-3-(7-(1-ethoxyethyl)-2-methylthiazolo[5,4-b]pyridin-6-yl)urea] | 51 to 100 | 1 to 100 |
| COC(C)c1c(NC(=O)Nc2ccc(-n3ccnn3)c(Cl)c2)cnc2sc(C)nc12 (single isomer, unassigned) [Compound 198b, (S) or (R)-1-(3-Chloro-4-(1H-1,2,3-triazol-1-yl)phenyl)-3-(7-(1-methoxyethyl)-2-methylthiazolo[5,4-b]pyridin-6-yl)urea] | 1 to 50 | 1 to 100 |
| COC(C)c1c(NC(=O)Nc2ccc(-c3cnco3)c(Cl)c2)cnc2sc(C)nc12 (single isomer, unassigned) [Compound 204, (S) or (R)-1-(3-Chloro-4-(oxazol-5-yl)phenyl)-3-(7-(1-methoxyethyl)-2-methylthiazolo[5,4-b]pyridin-6-yl)urea] | 101 to 500 | 101 to 500 |

Further lines, with some results ahead:

| IC50 (full length MALT1 enzyme) [nM] | SMILES | IC50 [1] [nM] |
| --- | --- | --- |
| 1 to 50 | COCC1CCCN(c2c(NC(=O)Nc3cnc(-n4nccn4)c(Cl)c3)cnc3sc(C)nc23)C1 (racemic) [Compound 50, (ě)-1-(5-Chloro-6-(2H-1,2,3-triazol-2-yl)pyridin-3-yl)-3-(7-(3-(methoxymethyl)piperidin-1-yl)-2-methylthiazolo[5,4-b]pyridin-6-yl)urea] | 101 to 500 |
| 1 to 50 | COC1CCCN(c2c(NC(=O)Nc3cnc(-n4nccn4)c(Cl)c3)cnc3sc(C)nc23)C1 (racemic) [Compound 52, (ě)-1-(5-Chloro-6-(2H-1,2,3-triazol-2-yl)pyridin-3-yl)-3-(7-(3-methoxypiperidin-1-yl)-2-methylthiazolo[5,4-b]pyridin-6-yl)urea] | 101 to 500 |
| 1 to 50 | Cc1nc2c(C(C)O)c(NC(=O)Nc3cnc(-n4nccn4)c(C(F)(F)F)c3)cnc2s1 (single isomer, unassigned) [Compound 71b, 1-(6-(2H-1,2,3-Triazol-2-yl)-5-(trifluoromethyl)pyridin-3-yl)-3-(7-(1-hydroxyethyl)-2-methylthiazolo[5,4-b]pyridin-6-yl)urea] | 1 to 100 |
| 1 to 50 | Cc1nc2c(C(C)N(C)C)c(NC(=O)Nc3cnc(-n4nccn4)c(C(F)(F)F)c3)cnc2s1 (single isomer, unassigned) [Compound 74b, 1-(6-(2H-1,2,3-Triazol-2-yl)-5-(trifluoromethyl)pyridin-3-yl)-3-(7-(1-(dimethylsmino)ethyl)-2-methylthiazolo[5,4-b]pyridin-6-yl)urea] | 1 to 100 |
| 1 to 50 | COC(c1c(NC(=O)Nc2cnc(-n3nccn3)c(C(F)(F)F)c2)cnc2sc(C)nc12)C(C)C (single isomer, unassigned) [Compound 78b, 1-(6-(2H-1,2,3-Triazol-2-yl)-5-(trifluoromethyl)pyridin-3-yl)-3-(7-(1-methexyl-methylpropyl)-2-methylthiazolo[5,4-b]pyridin-6-yl)urea] | 1 to 100 |
| 1 to 50 | COC(c1ccccc1)c1c(NC(=O)Nc2cnc(-n3nccn3)c(Cl)c2)cnc2sc(C)nc12 (single isomer, unassigned) [Compound 84b, 1-(5-Chloro-6-(2H-1,2,3-triazol-2-yl)pyridin-3-yl)-3-(7-(methoxy(phenyl)methyl)-2-methylthiazolo[5,4-b]pyridin-6-yl)urea] | 1 to 100 |
